± gives the expanded uncertainty stated by the source.
What was measured:
[1] = for vapor or sublimation pressure: Liquid
[2] = refractive index (Na D-line) (dimensionless); conditions: 293.2 K; 101.33 kPa; Liquid; Standard Abbe refractometry

Row | Normal melting temperature ([1]; Crystal, visual observation) | SMILES | vapor or sublimation pressure ([1]; 417.59 K) | vapor or sublimation pressure ([1]; 425.4 K) | vapor or sublimation pressure ([1]; 435.12 K) | vapor or sublimation pressure ([1]; 444.5 K) | vapor or sublimation pressure ([1]; 454.9 K) | vapor or sublimation pressure ([1]; 466.01 K) | vapor or sublimation pressure ([1]; 475.82 K) | vapor or sublimation pressure ([1]; 486.11 K) | vapor or sublimation pressure ([1]; 496.11 K) | vapor or sublimation pressure ([1]; 506.87 K) | vapor or sublimation pressure ([1]; 516.84 K) | vapor or sublimation pressure ([1]; 525.54 K) | refractive index [2]
1 | – | COC(=O)c1ccccc1C(=O)OC [dimethyl 1,2-benzenedicarboxylate] | 0.934 ± 0.12 kPa | 1.466 ± 0.13 kPa | 2.21 ± 0.13 kPa | 3.356 ± 0.13 kPa | 5.164 ± 0.13 kPa | 7.823 ± 0.14 kPa | 11.13 ± 0.14 kPa | 15.42 ± 0.15 kPa | 20.93 ± 0.15 kPa | 28.7 ± 0.17 kPa | 38.16 ± 0.18 kPa | 48.71 ± 0.2 kPa | 1.516 ± 0.001
2 | 52.5 ± 0.5 °C | O=C1C=CC(=O)O1 [maleic anhydride] | – | – | – | – | – | – | – | – | – | – | – | – | –

— the NIST ThermoML archive (doi:10.1016/j.fluid.2006.06.013)
